Columns and labels:
[1] = Photodiode array (PDA) detection in mouse brain; assay type: in vivo; details: FIG. 1
From the text: FIG. 1 is a graph showing a photodiode array (PDA) spectrum of WHYKD8 in mouse brain.
A photodiode array (PDA) was used to detect WHYKD8 in mouse brain (FIG. 1).

Autophagy Markers = test: Autophagy markers (Cyto-ID assay) in HEK 293 cells expressing mKate2 Tau; assay type: cell-based, Human; details: HEK 293 mKate2 Tau cells
Description: The dye used in the kit prevents its accumulation within lysosomes, but enables labelling of vacuoles associated with the autophagy pathway using the LC3 biomarker.
The test compounds (along with CytoID™ dye and Hoechst stain) were added to the cells and incubated for 3 hours. Reference compounds were also used in each plate, Rapamycin was used for autophagy induction and chloroquine was used for lysosomal inhibition. After 3 hours test compound was aspirated off and kept. Cells were then washed and read using a fluorescence plate reader. Hoescht, Cyto-ID™ and mKate2 were measured using 3 distinct wavelengths on the plate reader. The Hoescht measurement allowed normalisation of results across wells. After reading, test compound was re-added and the cells are left for a further 21 hours. At the 24 hour time point cells were once again washed and plates read using the fluorescence plate reader.
2) Test samples were prepared in warm FluoroBrite™ DMEM and with 10% FBS and 1% NEAA (FB-DMEM). […]
5) Treatment plate was then washed quickly 3 times with warm FB-DMEM (100 μL/well). […] At this point, the plate was ready for reading. See details in Reading Plate section. Hoescht was read at Excitation wavelength (Ex)=355 nm & Emission wavelength (Em)=446 nm. mKate2 was read at Ex=575 nm & Em=630 nm. Cyto-ID™ was read at Ex=463 nm & Em=534 nm. […]

[2] = test system: HEK 293 (Human Embryo Kidney) cell line
Description: The cells were grown in the presence of the antibiotic doxycycline. When the antibiotic is removed the cells produce Tau (which can be quantified), thus allowing the test compounds' effects on Tau's production to be compared. Doxycycline was removed for 72 hours prior to exposure to the test compounds to promote sufficient Tau production. Cells were subsequently plated into plates for each of the assays described below.

PLD2 = target: T1, PLD2 (Homo sapiens, UniProt O14939); test: PLD2 activity: Proteostat/mKate2 with PLD1 inhibitor VU0150669; assay type: cell-based
T1 construct: endogenous in cells; host or cells: HEK 293 Jump-In cells expressing mKate2-Tau
T1 sequence (O14939 whole entry): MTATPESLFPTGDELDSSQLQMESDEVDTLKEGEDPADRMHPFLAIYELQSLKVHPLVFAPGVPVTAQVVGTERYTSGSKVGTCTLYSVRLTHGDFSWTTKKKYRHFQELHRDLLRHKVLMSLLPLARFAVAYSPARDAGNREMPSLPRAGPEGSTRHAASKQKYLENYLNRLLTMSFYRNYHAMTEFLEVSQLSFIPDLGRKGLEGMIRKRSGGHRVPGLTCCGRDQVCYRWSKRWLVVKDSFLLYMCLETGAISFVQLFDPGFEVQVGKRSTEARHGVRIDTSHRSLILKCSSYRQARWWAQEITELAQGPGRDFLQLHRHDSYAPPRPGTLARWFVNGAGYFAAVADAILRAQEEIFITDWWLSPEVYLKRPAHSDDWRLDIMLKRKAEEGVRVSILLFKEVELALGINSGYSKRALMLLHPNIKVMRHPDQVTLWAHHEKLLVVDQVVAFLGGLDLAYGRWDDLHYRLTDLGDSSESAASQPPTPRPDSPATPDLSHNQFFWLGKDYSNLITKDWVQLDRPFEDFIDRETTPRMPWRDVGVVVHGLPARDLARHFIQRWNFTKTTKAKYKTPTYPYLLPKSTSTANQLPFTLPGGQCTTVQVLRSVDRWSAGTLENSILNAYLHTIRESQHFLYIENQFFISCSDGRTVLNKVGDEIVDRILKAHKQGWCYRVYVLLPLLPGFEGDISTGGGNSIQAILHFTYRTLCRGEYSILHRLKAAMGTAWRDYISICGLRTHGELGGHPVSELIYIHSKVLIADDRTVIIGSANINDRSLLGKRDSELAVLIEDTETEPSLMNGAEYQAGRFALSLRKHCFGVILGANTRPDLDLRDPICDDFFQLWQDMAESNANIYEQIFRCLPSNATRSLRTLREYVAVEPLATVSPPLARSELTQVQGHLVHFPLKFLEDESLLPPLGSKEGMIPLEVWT
Description: The assay was run in e18 primary cortical neurons from PLD1 or PLD2 KO mice cultured for 14 days. Alternatively, the assay can be run in the cells described above in the presence of excess PLD1 or PLD2 inhibitor to preclude that particular action from contributing to the effect of the drug.
4) On the day of experiment, cells were washed in warmed HBSS twice before media containing test compound (n=3 per compound per dose), inhibitor (355 nM ML298 or 50 nM VU0150669), or vehicle are added to the wells (1.5 mL in 6 well, 600 μL in 12 well). Plates were incubated for 24 hours at 37° C. with 5% CO2.

SMILES: Oc1ccc(CCNc2ncnc3ccc(Cl)cc23)cc1 [WHYKD8]
- detection in mouse brain by photodiode array [1]: readily detected

SMILES: Fc1ccc2ncnc(SC3CCOCC3)c2c1 [WHYKD19]
- % Increase Autophagy Markers (Autophagy Markers): 350%

SMILES: c1cnc2c(SC3CCCC3)ncnc2c1 [WHYKD36]
- CC50 [2]: 67 µM
- Proteostat PLD2/PLD1 ratio (PLD2; ratio of Proteostat values): 1.5
- mKate2 PLD2/PLD1 ratio (PLD2; ratio of mKate2 values): 1.7

Reference: patent US11230558B2, “Activators of autophagic flux and phospholipase D and clearance of protein aggregates including tau and treatment of proteinopathies” (THE TRUSTEES OF COLUMBIA UNIVERSITY IN THE CITY OF NEW YORK, priority 2015, dated 2022)
